19 molecules from ChEMBL document CHEMBL3868641, “Discovery, characterization and biological evaluation of a novel (R)-4,4-difluoropiperidine scaffold as dopamine receptor 4 (D4R) antagonists” (Bioorg Med Chem Lett, 2016) can be followed below.

Broadly, the pIC50 is −log10 of the IC50, conventionally taken in molar units. The term pKi denotes −log10 of the Ki, conventionally taken in molar units. One may read the inhibition as how much of the control response was suppressed. By fraction unbound is commonly meant the share of the substance not bound to proteins or other matrix. Higher therefore signals weak binding. What is called Kp is the ratio of the level in a tissue or fluid to that in plasma or blood.

pIC50, pKi: −log10 of the molar value. Some results are limits rather than exact numbers.

A short description of series [1]: Displacement of [3H]Spiperone from recombinant human Dopamine D4.4 receptor expressed in CHO-K1 cell membranes after 120 mins. In general terms: In a radioligand displacement assay an active substance lowers the binding of a labelled ligand.
In series [2] the test system is CHO-K1. The series is described as follows: Displacement of [3H] Spiperone from recombinant human Dopamine D4.4 receptor expressed in CHO-K1 cell membranes at 0.1 uM after 120 mins relative to control.
Series [3] can be described thus: Displacement of [3H]Spiperone from recombinant human Dopamine D4.4 receptor expressed in CHO-K1 cell membranes at 10 uM after 120 mins relative to control.
A short description of series [4]: Intrinsic clearance in human liver microsomes by HPLC/MS analysis. It is filed as ADME. The note with it: read-out: CLH. In general terms: Liver microsomes are vesicles of endoplasmic reticulum, rich in cytochrome P450 enzymes.
A short description of series [5]: Intrinsic clearance in rat liver microsomes by HPLC/MS analysis. Format: ADME. The note with it: read-out: CLH.
Series [6] in a line: Unbound fraction in human plasma by HPLC/MS based equilibrium dialysis method. It is filed as ADME, cell-free. (In general: In equilibrium dialysis free small molecules cross a membrane that holds back macromolecules.)
Series [7] can be described thus: Unbound fraction in rat plasma by HPLC/MS based equilibrium dialysis method. Format: ADME, cell-free.
Series [8] in a line: Plasma concentration in rat at 0.25 mg/kg, iv administered through cassette dosing after 0.25 hrs by LC/MS/MS analysis. It is filed as ADME, organism-based.
Series [9] can be described thus: Drug uptake in rat brain at 0.25 mg/kg, iv administered through cassette dosing after 0.25 hrs by LC/MS/MS analysis. It is filed as ADME, organism-based. The note with it: for concentration at 0.25 h: brain, read-out: Drug uptake.
A short description of series [10]: Displacement of [3H] Spiperone from recombinant human Dopamine D4.4 receptor expressed in CHO-K1 cell membranes at 1 uM after 120 mins relative to control.
Series [11] is described as follows: Ratio of drug level in brain to plasma in rat at 0.25 mg/kg, iv administered through cassette dosing after 0.25 hrs by LC/MS/MS analysis. Format: ADME, organism-based.
Series [12] concerns the target D(1A) dopamine receptor (Homo sapiens) (UniProt P21728). The series is described as follows: Displacement of [3H]SCH-23390 from recombinant human Dopamine D1 receptor expressed in CHO cell membranes at 10 uM after 120 mins relative to control.
Series [13] has as its target D(2) dopamine receptor (Homo sapiens) (UniProt P14416). The series is described as follows: Displacement of [3H]Spiperone from recombinant human Dopamine D2L receptor expressed in CHO cell membranes at 10 uM after 120 mins relative to control.
The target is the same in series [14]. Put plainly: Displacement of [3H]Spiperone from recombinant human Dopamine D2S receptor expressed in CHO cell membranes at 10 uM after 120 mins relative to control.
The target of series [15] is D(3) dopamine receptor (Homo sapiens) (UniProt P35462). Put plainly: Displacement of [3H]Spiperone from recombinant human Dopamine D3 receptor expressed in CHO cell membranes at 10 uM after 120 mins relative to control.
D(3) dopamine receptor (Homo sapiens), sequence (P35462 whole entry): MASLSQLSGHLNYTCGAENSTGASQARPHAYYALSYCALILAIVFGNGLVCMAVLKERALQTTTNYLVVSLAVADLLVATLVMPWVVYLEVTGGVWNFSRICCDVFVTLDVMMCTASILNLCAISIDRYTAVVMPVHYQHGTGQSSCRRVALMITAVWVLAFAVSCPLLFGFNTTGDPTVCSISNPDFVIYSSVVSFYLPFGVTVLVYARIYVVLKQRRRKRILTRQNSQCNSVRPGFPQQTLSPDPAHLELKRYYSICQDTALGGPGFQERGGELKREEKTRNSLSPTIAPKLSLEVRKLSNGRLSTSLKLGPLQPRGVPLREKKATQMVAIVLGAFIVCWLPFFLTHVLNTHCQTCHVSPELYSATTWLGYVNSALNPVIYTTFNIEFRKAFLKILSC
Series [16] concerns the target D(1B) dopamine receptor (Homo sapiens) (UniProt P21918). The series is described as follows: Displacement of [3H]SCH-23390 from recombinant human Dopamine D5 receptor expressed in CHO cell membranes at 10 uM after 120 mins relative to control.

D(1A) dopamine receptor (Homo sapiens), sequence (P21728 whole entry): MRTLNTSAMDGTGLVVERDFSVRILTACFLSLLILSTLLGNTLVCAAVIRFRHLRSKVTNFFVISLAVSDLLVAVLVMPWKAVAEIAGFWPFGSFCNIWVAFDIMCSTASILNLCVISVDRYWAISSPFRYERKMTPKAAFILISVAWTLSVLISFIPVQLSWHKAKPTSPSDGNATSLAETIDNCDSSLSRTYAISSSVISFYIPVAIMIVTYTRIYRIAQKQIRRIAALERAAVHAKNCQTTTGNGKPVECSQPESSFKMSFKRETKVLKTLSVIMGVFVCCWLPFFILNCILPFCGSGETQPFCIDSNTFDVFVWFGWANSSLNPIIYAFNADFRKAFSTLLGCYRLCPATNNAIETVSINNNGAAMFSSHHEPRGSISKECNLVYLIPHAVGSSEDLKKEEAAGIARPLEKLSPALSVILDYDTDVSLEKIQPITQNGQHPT
D(1B) dopamine receptor (Homo sapiens), sequence (P21918 whole entry): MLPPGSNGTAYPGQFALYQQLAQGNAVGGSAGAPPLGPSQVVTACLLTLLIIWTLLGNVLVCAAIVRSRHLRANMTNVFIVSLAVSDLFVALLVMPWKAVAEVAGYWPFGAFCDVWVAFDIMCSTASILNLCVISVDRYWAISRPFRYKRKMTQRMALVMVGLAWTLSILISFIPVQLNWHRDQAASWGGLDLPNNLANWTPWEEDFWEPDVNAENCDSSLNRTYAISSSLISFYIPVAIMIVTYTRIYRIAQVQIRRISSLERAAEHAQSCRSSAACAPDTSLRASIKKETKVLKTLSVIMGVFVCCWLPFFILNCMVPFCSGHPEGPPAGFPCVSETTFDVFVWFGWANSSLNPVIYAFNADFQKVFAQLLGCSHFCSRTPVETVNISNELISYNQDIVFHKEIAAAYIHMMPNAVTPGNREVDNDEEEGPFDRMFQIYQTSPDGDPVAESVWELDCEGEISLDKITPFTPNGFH
D(2) dopamine receptor (Homo sapiens), sequence (P14416 whole entry): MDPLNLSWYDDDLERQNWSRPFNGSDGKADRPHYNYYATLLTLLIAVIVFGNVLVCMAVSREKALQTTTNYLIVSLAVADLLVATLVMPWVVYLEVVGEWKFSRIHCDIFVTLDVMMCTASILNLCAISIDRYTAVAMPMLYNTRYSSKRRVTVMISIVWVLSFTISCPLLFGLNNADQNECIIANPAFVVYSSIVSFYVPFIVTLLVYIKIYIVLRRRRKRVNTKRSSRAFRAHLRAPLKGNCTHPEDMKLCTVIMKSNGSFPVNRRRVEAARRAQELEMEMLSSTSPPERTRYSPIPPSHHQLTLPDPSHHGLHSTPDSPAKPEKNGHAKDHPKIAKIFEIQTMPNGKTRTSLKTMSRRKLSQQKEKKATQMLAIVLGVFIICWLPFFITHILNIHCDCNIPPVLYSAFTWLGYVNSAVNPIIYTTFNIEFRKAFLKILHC

On to `COc1ccc2c(CN3CCC(F)(F)[C@@H](CCc4ccc(F)cc4)C3)c[nH]c2c1`, for which, in series [1], the negative logarithm of the IC50 (pIC50) was 6.21 and the pKi is 6.77. The inhibition in series [2] was found to be 64%.

As to `Fc1ccc2[nH]cc(CN3CCC(F)(F)[C@@H](CCc4ccccc4)C3)c2c1`, the inhibition in [3] was found to be 55%. Further, the CLint scaled was determined as 70.5 mL/min/kg in series [4] and 1910 mL/min/kg in series [5]. For the same molecule, the unbound share (fraction unbound) in [6] and in series [7] was 0.001 in each case. The same molecule registered a concentration at 0.25 h in series [8] of 25.3 ng/mL. In addition, the Drug uptake result in series [9] (in vivo, 0.25 h, BLD = below limit of detection) is listed as “Bld”.

On to `Fc1ccccc1CC[C@@H]1CN(Cc2c[nH]c3cc(Cl)ccc23)CCC1(F)F`, for which the pIC50 in series [1] is 6.72. Also, the pKi in series [1] was 7.28. Further, in series [10], the inhibition is 84%. Besides, the CLint scaled in series [4] turned out to be 156 mL/min/kg; in [5], 1300 mL/min/kg. For the same molecule, the unbound share (fraction unbound) in series [6] was found to be 0.005; in series [7], 0.002. Also, the values for the concentration at 0.25 h in [8] and in [9] were 54.8 ng/mL and 23.5 ng/g, respectively. The partition ratio (Kp) at 0.25 h in series [11] was determined as 0.4.

Take `Fc1ccc(CC[C@H]2CN(Cc3c[nH]c4cc(F)ccc34)CCC2(F)F)cc1`: the inhibition in [12] is less than 50%; in series [13], less than 50%; in series [14], less than 50%; in series [15] it was 52%; in [16] it was less than 50%; in [10], 75%. Besides, the negative-log IC50 (pIC50) in series [1] was 6.49. Also, in series [1], the negative-log Ki (pKi) was 7.05.

For the molecule `Fc1ccc2c(CN3CCC(F)(F)[C@H](CCc4ccccc4)C3)c[nH]c2c1`, the negative logarithm of the IC50 (pIC50) in series [1] was 7.64. The pKi in [1] is 8.20. Besides, the inhibition in [10] amounted to 79%. The figures for the CLint scaled in series [4] and in [5] were 111 mL/min/kg and 2490 mL/min/kg, respectively. Also, the figures for the unbound share (fraction unbound) in series [6] and in series [7] were 0.001 and 0.014, respectively. Moreover, the values for the concentration at 0.25 h in series [8] and in series [9] were 28.6 ng/mL and 100 ng/g, respectively. Moreover, in [11], the concentration ratio (Kp) at 0.25 h was 3.5.

Turning to `FC1(F)CCN(Cc2c[nH]c3cc(Cl)ccc23)C[C@H]1CCc1ccccc1`, in [1], the negative-log IC50 (pIC50) was 7.19 and the negative logarithm of the Ki (pKi) was 7.75. Moreover, the inhibition in [10] turned out to be 59%.

Regarding `Fc1ccc2[nH]cc(CN3CCC(F)(F)[C@H](CCc4ccccc4)C3)c2c1`, in series [1], the negative logarithm of the IC50 (pIC50) was 7.23 and the negative-log Ki (pKi) is 7.79. The inhibition in series [10] was 66%.

For `Cc1ccc(CN2CCC(F)(F)[C@H](CCc3ccccc3)C2)cc1C`, in series [1], the negative logarithm of the IC50 (pIC50) is 6.64. Moreover, in series [1], the negative-log Ki (pKi) was 7.20. Further, in [3], the inhibition was found to be 77%. For the same molecule, the CLint scaled was found to be 108 mL/min/kg in series [4] and 1670 mL/min/kg in series [5]. Further, the fraction unbound in series [6] stood at 0.005; in series [7], 0.004. The concentration at 0.25 h turned out to be 44.4 ng/mL in series [8] and 93.7 ng/g in series [9]. Also, the concentration ratio (Kp) at 0.25 h in series [11] came out at 2.1.

Consider `COc1ccc2c(CN3CCC(F)(F)[C@H](CCc4cccc(F)c4)C3)c[nH]c2c1`, for which the inhibition was less than 50% in series [12]; 53% in series [13]; less than 50% in series [14]; 85% in [15]; less than 50% in series [16]; 83% in series [2]. In addition, in series [1], the negative-log IC50 (pIC50) is 7.73. The pKi in [1] was 8.28. Also, the figures for the CLint scaled in series [4] and in [5] were 300 mL/min/kg and 1060 mL/min/kg, respectively. Moreover, the fraction unbound in [6] was determined as 0.003; in [7], 0.002. For the same molecule, the values for the concentration at 0.25 h in [8] and in series [9] were 39 ng/mL and 43.5 ng/g, respectively. Moreover, the Kp at 0.25 h in [11] turned out to be 1.1.

As to `Fc1ccc2c(CN3CCC(F)(F)[C@@H](CCc4ccccc4F)C3)c[nH]c2c1`, the inhibition in [12] was less than 50%; in series [13], 57%; in series [14], less than 50%; in series [15], 54%; in [16] it was less than 50%; in series [10], 66%. In addition, in [1], the negative logarithm of the IC50 (pIC50) was 6.31. The pKi in series [1] is 6.85.

In the case of `COc1ccc2c(CN3CCC(F)(F)[C@@H](CCc4cccc(F)c4)C3)c[nH]c2c1`, in series [1], the pIC50 is 6.28 and the pKi was 6.82. Besides, the inhibition in [10] is 62%.

As to `COc1ccc2cc(CN3CCC(F)(F)[C@H](CCc4ccccc4)C3)c(OC)nc2c1`, in series [1], the pIC50 is 7.06 and the pKi is 7.62. Besides, the inhibition in [10] was 53%.

For the molecule `Fc1ccc2c(CN3CCC(F)(F)[C@H](CCc4ccccc4F)C3)c[nH]c2c1`, the inhibition was less than 50% in [12]; 51% in series [13]; less than 50% in series [14]; 65% in [15]; less than 50% in series [16]; 85% in series [2]. Further, the pIC50 in series [1] is 7.85. For the same molecule, in series [1], the pKi is 8.41. Moreover, the unbound share (fraction unbound) in series [6] is 0.005; in series [7], 0.05. Also, the results for the concentration at 0.25 h in [8] and in [9] were 30.4 ng/mL and 38.9 ng/g, respectively. In series [11], the Kp at 0.25 h was 1.3.

Take `Cc1ccc(CN2CCC(F)(F)C(CCc3ccccc3)C2)cc1C` (racemic): the inhibition in [12] was less than 20%; in [3], 85%; in [13], less than 20%; in series [14] it was less than 20%; in series [15], less than 20%; in series [16], less than 20%. In [1], the pIC50 was 6.52. Besides, the pKi in [1] was 7.09.

As to `Fc1ccc(CCC2CN(Cc3ncn4ccccc34)CCC2(F)F)cc1` (racemic), the inhibition was less than 50% in series [12]; 97% in series [3]; less than 50% in series [13]; less than 50% in [14]; less than 50% in series [15]; less than 50% in [16]. Also, in series [1], the negative-log IC50 (pIC50) is 7.46. Also, the negative-log Ki (pKi) in [1] was 8.01.

Turning to `Fc1cccc(CCC2CN(Cc3c[nH]c4cc(F)ccc34)CCC2(F)F)c1` (racemic), the inhibition is less than 50% in series [12]; 92% in series [3]; less than 50% in series [13]; less than 50% in series [14]; less than 50% in [15]; less than 50% in series [16]. In [1], the negative-log IC50 (pIC50) is 7.11. For the same molecule, the negative logarithm of the Ki (pKi) in series [1] is 7.68.

Take `FC1(F)CCN(Cc2ncn3ccccc23)CC1CCc1ccccc1` (racemic): the inhibition in series [12] is less than 50%; in series [3], 90%; in series [13], less than 50%; in series [14] it was less than 50%; in series [15], less than 50%; in series [16], less than 50%. The negative logarithm of the IC50 (pIC50) in [1] is 6.92. Besides, in [1], the pKi was 7.47.

With `Fc1ccccc1CCC1CN(Cc2c[nH]c3cc(Cl)ccc23)CCC1(F)F` (racemic), the inhibition in series [12] was less than 50%; in series [3], 96%; in series [13] it was less than 50%; in series [14], 57%; in series [15], 69%; in series [16] it was less than 50%. Further, the pIC50 in [1] is 7.26. The pKi in [1] was 7.82.

Turning to `COc1ccc2[nH]cc(CN3CCC(F)(F)C(CCc4ccccc4)C3)c2c1` (racemic), the inhibition was less than 50% in [12]; 91% in [3]; less than 50% in series [13]; 52% in series [14]; less than 50% in [15]; less than 50% in [16]. In series [1], the pIC50 was 6.14. Moreover, the negative-log Ki (pKi) in [1] was 6.70.
